From patent publication US20240308977A1, “PYRIDAZINE DERIVATIVES AS INHIBITORS OF NLRP3” (Hoffmann-La Roche Inc., priority 2021, published 2024) come the findings set out here.

Where only a bound is given, the exact number is not on record here.

What all share (type): cell-based
Test [1] addresses T1, NLRP3 (Homo sapiens, UniProt Q96P20). The test is described as follows: Human whole blood IL-1β release assay. Particulars: LPS 1 μg/ml, nigericin 10 μM, IL-1β by AlphaLisa. Further details: Human whole blood in Li-heparin tubes was obtained from healthy donors; from tissue; host or cells: human whole blood from healthy donors.
Method: Human whole blood in Li-heparin tubes was obtained from healthy donors from a volunteer donor panel. • 1. […] Incubate for 3 hours at 37° C., 5% CO2 • 4. Add 10 μl nigericin (Sigma #N7143) (10 μM FAC) to all wells • 5. Incubate for 1 hr at 37° C., 5% CO2 • 6. At the end of the incubation period, spin plates at 300 xg for 5 mins to pellet cells and remove 20 μl of supernatant and add to 96-well v-bottom plates for IL-1β analysis (note: these plates containing the supernatants can be stored at −80° C. to be analysed at a later date) • 7. IL-1β was measured according to the manufacturer protocol (Perkin Elmer-AlphaLisa IL-1 Kit AL220F-5000) • 8. IC50 data is fitted to a non-linear regression equation (log inhibitor vs response-variable slope 4-parameters)
Test [2] addresses T1, NLRP3. The test is described as follows: THP-1 cells pyroptosis assay. Further details: Seed THP-1 cells (25,000 cells/well) containing 10 μg/ml LPS; host or cells: THP-1 cells. Particulars: LPS primed, nigericin 5 μM, resazurin read-out. As to the method:
Therefore, it is anticipated that inhibitors of NLRP3 will block pyroptosis, as well as the release of pro-inflammatory cytokines (e.g. IL-1B) from the cell.
On the day of the experiment, THP-1 cells were harvested and resuspended into RPMI medium (without FBS). The cells were then counted and viability (>90%) checked by Trypan blue (Sigma #T8154). […] To this diluted cell solution was added LPS (Sigma #L4524) to give a 1 μg/ml Final Assay Concentration (FAC). 40 μl of the final preparation was aliquoted into each well of a 96-well plate. The plate thus prepared was used for compound screening.
The following method step-by-step assay was followed for compound screening. • 1. […] Incubate for 3 hours at 37° C., 5% CO2 • 4. Add 5 μl nigericin (Sigma #N7143) (FAC 5 μM) to all wells • 5. Incubate for 1 hr at 37° C., 5% CO2 • 6. At the end of the incubation period, spin plates at 300 xg for 3 mins and remove supernatant • 7. […] IC50 data is fitted to a non-linear regression equation (log inhibitor vs response-variable slope 4-parameters)
Background: Alamar Blue is a resazurin reagent that responds to reducing activity.

Test [3] deals with T2, hERG cardiac potassium channel (Homo sapiens, UniProt Q12809).
T2 construct: host or cells: CHO crelox hERG cell line (Chinese hamster)
T2 sequence (Q12809 whole entry): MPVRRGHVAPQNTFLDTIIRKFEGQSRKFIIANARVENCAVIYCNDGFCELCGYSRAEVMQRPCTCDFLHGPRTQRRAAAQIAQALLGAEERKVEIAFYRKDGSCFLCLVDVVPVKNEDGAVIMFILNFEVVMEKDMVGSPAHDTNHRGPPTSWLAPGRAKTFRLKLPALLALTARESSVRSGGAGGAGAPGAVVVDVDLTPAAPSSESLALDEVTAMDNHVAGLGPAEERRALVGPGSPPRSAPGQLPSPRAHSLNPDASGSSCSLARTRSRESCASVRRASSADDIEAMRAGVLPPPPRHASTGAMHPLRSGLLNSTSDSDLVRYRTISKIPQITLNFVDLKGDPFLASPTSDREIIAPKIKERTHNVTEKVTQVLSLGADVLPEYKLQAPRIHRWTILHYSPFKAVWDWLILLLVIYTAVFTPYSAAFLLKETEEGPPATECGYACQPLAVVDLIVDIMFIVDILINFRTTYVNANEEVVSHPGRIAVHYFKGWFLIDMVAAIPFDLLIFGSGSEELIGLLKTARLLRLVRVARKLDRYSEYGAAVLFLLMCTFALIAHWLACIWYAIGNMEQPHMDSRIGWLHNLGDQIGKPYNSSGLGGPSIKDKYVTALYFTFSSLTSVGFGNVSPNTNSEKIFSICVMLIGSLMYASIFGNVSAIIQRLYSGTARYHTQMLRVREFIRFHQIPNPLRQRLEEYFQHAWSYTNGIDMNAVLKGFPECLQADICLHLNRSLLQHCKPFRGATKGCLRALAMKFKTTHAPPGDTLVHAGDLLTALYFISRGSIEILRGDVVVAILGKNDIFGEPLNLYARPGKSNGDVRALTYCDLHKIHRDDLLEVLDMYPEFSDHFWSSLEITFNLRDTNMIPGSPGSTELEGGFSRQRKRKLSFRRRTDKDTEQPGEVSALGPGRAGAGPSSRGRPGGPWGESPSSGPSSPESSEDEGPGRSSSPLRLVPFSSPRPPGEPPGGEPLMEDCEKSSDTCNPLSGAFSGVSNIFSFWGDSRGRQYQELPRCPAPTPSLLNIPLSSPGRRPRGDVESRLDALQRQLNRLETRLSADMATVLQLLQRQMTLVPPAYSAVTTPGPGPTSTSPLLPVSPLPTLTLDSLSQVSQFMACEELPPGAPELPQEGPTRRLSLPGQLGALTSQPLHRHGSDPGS
The test is described as follows: hERG screening assay (automated patch clamp, CHO crelox hERG cells). To be noted: whole-cell patch clamp at 35-37° C. As to the method: Ready-to-use frozen instant CHO-hERG cells were cryopreserved at Evotec (Germany) and used directly in the experiments.
The internal solution contains (in mM): KCl, 10; KF, 100; NaCl, 10; HEPES, 10; EGTA, 20; pH=7.0-7.4 with KOH, osmolarity 260-300 mOsm.
The effects of a compound on hERG K+-currents parameters will be evaluated at 2 concentrations in at least 4 cells.
K+ currents are measured with the patch-voltage-clamp technique in the whole-cell configuration at 35-37° C.
The amplitudes of IKhERG were recorded in each concentration of drug and they were compared to the vehicle control values (taken as 100%) to define fractional blocks. The concentration-response data were fitted with the following relationship:
Concentration-response curves were fitted by non-linear regression analysis using EworkBook suite (ID Business Solutions Ltd, UK). Data fit was done with the 4 Parameter Logistic Model (fit=(A+(B/(1+((x/C)^D)))), where A=0 and B=100).
In the drug development process of small molecules, one of the most frequent adverse side effects, leading to the failure of drugs, is the cardiac arrhythmias. Such failure is often related to the capacity of the drug to inhibit the human ether-à-go-go-related gene (hERG) cardiac potassium channel. Having no or low inhibition of the hERG cardiac potassium channel is therefore considered as beneficial.
(In general: Block of hERG is tested as a sign of cardiac risk.)

T1 sequence (Q96P20 whole entry): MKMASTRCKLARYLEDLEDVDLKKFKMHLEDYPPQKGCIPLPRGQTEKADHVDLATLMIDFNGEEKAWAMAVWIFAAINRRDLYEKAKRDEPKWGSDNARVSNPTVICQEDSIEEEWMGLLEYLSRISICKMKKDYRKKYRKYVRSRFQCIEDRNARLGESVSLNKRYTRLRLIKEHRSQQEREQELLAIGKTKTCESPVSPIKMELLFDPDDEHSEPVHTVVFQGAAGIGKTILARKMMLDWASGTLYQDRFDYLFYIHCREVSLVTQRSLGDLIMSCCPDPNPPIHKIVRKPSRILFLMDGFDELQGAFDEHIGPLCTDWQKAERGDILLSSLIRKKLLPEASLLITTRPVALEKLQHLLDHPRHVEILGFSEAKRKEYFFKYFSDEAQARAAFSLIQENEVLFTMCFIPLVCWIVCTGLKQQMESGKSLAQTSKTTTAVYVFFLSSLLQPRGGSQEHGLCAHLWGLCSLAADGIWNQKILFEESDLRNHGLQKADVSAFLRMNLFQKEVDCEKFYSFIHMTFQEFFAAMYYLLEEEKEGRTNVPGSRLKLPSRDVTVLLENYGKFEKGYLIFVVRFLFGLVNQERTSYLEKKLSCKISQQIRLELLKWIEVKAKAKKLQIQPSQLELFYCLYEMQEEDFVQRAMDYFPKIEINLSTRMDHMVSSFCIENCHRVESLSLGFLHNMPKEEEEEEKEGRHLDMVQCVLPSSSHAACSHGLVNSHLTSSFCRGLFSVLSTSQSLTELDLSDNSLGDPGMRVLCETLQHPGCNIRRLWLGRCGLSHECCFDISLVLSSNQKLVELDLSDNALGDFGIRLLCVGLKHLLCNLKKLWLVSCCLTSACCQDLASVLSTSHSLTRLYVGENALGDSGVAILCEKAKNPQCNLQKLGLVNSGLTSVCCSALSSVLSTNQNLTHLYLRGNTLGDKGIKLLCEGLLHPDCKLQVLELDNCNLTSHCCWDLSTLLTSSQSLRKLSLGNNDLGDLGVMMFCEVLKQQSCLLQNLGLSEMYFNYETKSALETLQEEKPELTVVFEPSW

Turning to `CCN1CCC2CCN(c3ccc(-c4c(C)cc(C#N)cc4O)nn3)C2C1` (single isomer, unassigned) [Example 6A, 4-[6-[(3aS,7aR)-6-Ethyl-3,3a,4,5,7,7a-hexahydro-2H-pyrrolo[2,3-c]pyridin-1-yl]pyridazin-3-yl]-3-hydroxy-5-methyl-benzonitrile or 4-[6-[(3aR,7aS)-6-ethyl-3,3a,4,5,7,7a-hexahydro-2H-pyrrolo[2,3-c]pyridin-1-yl]pyridazin-3-yl]-3-hydroxy-5-methyl-benzonitrile], the figures for the IC50 on NLRP3 [1] and on NLRP3 [2] were 14.9 nM and 3.9 nM, respectively.
As for `CCN1CCC2CCN(c3ccc(-c4c(C)cc(C#N)cc4O)nn3)C2C1` (single isomer, unassigned) [Example 6B, 4-[6-[(3aR,7aS)-6-Ethyl-3,3a,4,5,7,7a-hexahydro-2H-pyrrolo[2,3-c]pyridin-1-yl]pyridazin-3-yl]-3-hydroxy-5-methyl-benzonitrile or 4-[6-[(3aS,7aR)-6-ethyl-3,3a,4,5,7,7a-hexahydro-2H-pyrrolo[2,3-c]pyridin-1-yl]pyridazin-3-yl]-3-hydroxy-5-methyl-benzonitrile], the IC50 (usually the concentration at which inhibition is half-maximal) on NLRP3 [2] came to 763 nM.
Consider `CCN1CCC[C@@H](Nc2cc(C)c(-c3ccc(C#N)cc3O)nn2)C1` [Example 1, 4-[6-[[(3R)-1-Ethyl-3-piperidyl]amino]-4-methyl-pyridazin-3-yl]-3-hydroxy-benzonitrile; formic acid], for which the IC50 in test [3] was more than 20000 nM; at NLRP3 [1], 3.2 nM; on NLRP3 [2] it was 3.1 nM.
Regarding `CCN1CCC[C@@H](Nc2cc(C(F)(F)F)c(-c3ccc(C#N)cc3O)nn2)C1` [Example 3, 4-[6-[[(3R)-1-Ethyl-3-piperidyl]amino]-4-(trifluoromethyl)pyridazin-3-yl]-3-hydroxy-benzonitrile], the half-inhibitory concentration (IC50) was determined as 51.8 nM against NLRP3 [1] and 73.1 nM at NLRP3 [2].
On to `Cc1cc(N[C@H]2C[C@@](C)(O)C2)nnc1-c1ccc(C#N)cc1O` [Example 4, 3-Hydroxy-4-[6-[(3-hydroxy-3-methyl-cyclobutyl)amino]-4-methyl-pyridazin-3-yl]benzonitrile], for which the IC50 on NLRP3 [2] worked out at 823 nM.
